# Data taken from patent US11767286B2, “Phenylpropionate compound, preparation method for same, and applications thereof” (SUZHOU PHARMAVAN CO., LTD, priority 2017, dated 2023).
# Where two headings read alike, the source gives them in different places.
# What was measured:
# [1] = test system: rats with acute cerebral ischemia-reperfusion; assay: Cerebral infarction area of rats with acute cerebral ischemia-reperfusion (MCAO, suture method); assay type: in vivo, SD rats; set-up: Cerebral Infarction Area: unit not given here; details: n=5; for Cerebral Infarction Area: 4 mg/kg iv 2 h after reperfusion (2 h MCAO), sampled 4 h after administration; for inhibition in vivo at 4 mg/kg: Rattus norvegicus, 4 h, 4 mg/kg iv 2 h after reperfusion, vs solvent control, read-out: Percentage of Cerebral Infarction Area Reduction
# Method: (§1) Trial method: Effects on inflammatory factors and blood viscosity of rats with acute cerebral ischemia-reperfusion: 70 Male SD rats underwent an MACO surgery by a suture method, and after the surgery, alive rats were randomly grouped (into 7 groups, the number of successful animals in each group was guaranteed to be 6 to 8). Blood perfusion was recovered 2 h after MCAO, and corresponding trial medicaments were intravenously injected 2 h after blood reperfusion. 4 hours after the administration, blood was collected and the rats were sacrificed to take out brain tissues. The brain tissues and part of the blood were centrifuged to collect serum which was detected for inflammatory factors, and part of the blood was detected for blood viscosity by using a blood viscometer. Detected indicators: cerebral infarction area; inflammatory factors IL-1β and TNF-α; and blood viscosity.
# Table 1 lists results of effects of phenylpropionate compounds (4 mg/kg) on cerebral infarction area of rats with acute cerebral ischemia (n=5).
# [2] = test system: rats with acute cerebral ischemia-reperfusion; assay: Blood viscosity of rats with acute cerebral ischemia-reperfusion (blood viscometer); assay type: in vivo, SD rats; set-up: unit not given here; details: 4 mg/kg iv 2 h after reperfusion; blood 4 h after administration; n=5
# Method: as §1
# Table 2 lists results of effects of phenylpropionate compounds (4 mg/kg) on blood viscosity of rats (n=5).
# TNF-α = assay: Inflammatory factor TNF-α in blood and brain tissues of rats with acute cerebral ischemia-reperfusion; assay type: in vivo, SD rats; details: 4 mg/kg iv 2 h after reperfusion; 4 h after administration; n=5
# Method: as §1
# (§2) Table 3 lists results of effects of phenylpropionate compounds (4 mg/kg) on inflammatory factors in blood and brain tissues of rats (n=5).
# IL-1β = assay: Inflammatory factor IL-1β in blood and brain tissues of rats with acute cerebral ischemia-reperfusion; assay type: in vivo, SD rats; details: 4 mg/kg iv 2 h after reperfusion; 4 h after administration; n=5
# Method: as §1, §2
# [3] = test system: platelet aggregation induced with ADP; assay: Maximum platelet aggregation rate of rabbits, induced with ADP; assay type: cell-based; details: rabbit plasma, 4 mg/kg as printed, n=3; for inhibition at 4 mg/kg: Oryctolagus cuniculus, Platelet
# Method: (§3) Effects on maximum platelet aggregation rate of rabbits: 3 Rabbits were anesthetized, and blood was collected from the heart to obtain 14 parts of plasma for each rabbit (1 ml per part of plasma). 7 Parts were induced with ADP to allow platelet aggregation, and 7 parts were induced with a platelet activating factor. After the induction, a solvent, positive control drug aspirin, and 5 samples to be trialed were separately added to the plasma, and maximum platelet aggregation rate was detected with a platelet aggregation meter. The trials were repeated 3 times, and an average was taken. Detected indicator: maximum platelet aggregation rate.
# (§4) Table 4 lists results of effects of phenylpropionate compounds (4 mg/kg) on platelet aggregation rate of rabbits (n=3).
# [4] = test system: platelet aggregation induced with a platelet activating factor; assay: Maximum platelet aggregation rate of rabbits, induced with PAF; assay type: cell-based; details: rabbit plasma, 4 mg/kg as printed; for inhibition at 4 mg/kg: Oryctolagus cuniculus, Platelet, n=3, read-out: Inhibiton rate on Aggregation; for Maximum Aggregation Rate: n=3
# Method: as §3, §4
# [5] = Distribution in brain: plasma and intracerebral concentrations after intravenous injection; assay type: in vivo; details: both sexes, rat, rats, 4 mg/kg iv; for Kp at 10 min / Kp at 60 min / Kp at 180 min: brain/plasma, read-out: Brain/Blood Concentration Ratio
# Method: In this example, Compounds A to E, D-bornyl ferulate, and D-tanshinol borneol ester were measured for distribution in brain. Structures of D-bornyl ferulate (Patent Application No.: 201510243181.5) and D-tanshinol borneol ester compounds are as follows:
# Method for testing distribution in brain: 42 rats with a weight range of 200±20 g were taken. The rats were randomly divided into 7 groups, with 6 rats per group, half male and half female. Rats were fasted with free access to water for 12 h and then intravenously injected with 4 mg/kg of a compound. Rats in the 3 groups were sacrificed through femoral artery bleeding and collected for blood 10 min, 60 min, 180 min after administration, respectively. Brains were taken out, 0.2 g was weighted, and 1 mL of pure water was added for homogenizing. The blood samples and brain homogenate samples were stored at −20° C.
# Distribution of Compounds A to E, and D-bornyl ferulate and D-tanshinol borneol ester compounds in brain: Data on concentrations of Compounds A to E, D-bornyl ferulate, and D-tanshinol borneol ester in plasma and intracerebral in rats intravenously injected with 4 mg/kg of Compounds A to E, D-bornyl ferulate, and D-tanshinol borneol ester are listed in Table 9.
# [6] = test system: SD rat model of focal ischemia-reperfusion; assay: Dose-effect relationship in SD rat model of focal ischemia-reperfusion (MCAO); assay type: in vivo, SD rats; details: 4.0 mg/kg, given 2 h after reperfusion, mean ± standard error; for Score of Symptoms of Neurological Deficits: 48 h, modified Bederson 5-point scale; for Infarction area: evaluated after 48 h
# Method: In this example, phenylpropionate compounds were studied for dose-effect relationship, with D-bornyl ferulate (administrated at 4.0 mg/kg) and D-tanshinol borneol ester (administrated at 4.0 mg/kg) as positive control drugs. Structures of D-bornyl ferulate (Patent Application No.: 201510243181.5) and D-tanshinol borneol ester compounds are as follows:
# Trial method: A cerebral ischemia reperfusion model of middle cerebral artery occlusion (MCAO) was prepared by an internal carotid artery suture method. An animal was anesthetized with 10% chloral hydrate (3.6 mL/kg) and then fixed on an operating table in a supine position. Its skin was disinfected, and a midline incision was made on the neck. The right common carotid artery, external carotid artery, and internal carotid artery were separated, the vagus nerve was gently striped off, and the external carotid artery was ligated and cut. The common carotid artery was clamped at the proximal end. […] The nylon thread was advanced through the bifurcation of the common carotid artery into the internal carotid artery, and then was slowly inserted until there was slight resistance (about 20 mm from the bifurcation) to block all the blood supply to the middle cerebral artery. 2 h after cerebral ischemia, the nylon thread was gently pulled out to restore blood supply for reperfusion, and the neck skin was sutured and disinfected. The animal was put back in a cage and raised. During the modeling operation, animals with abnormal conditions due to anesthesia, surgery, etc. were excluded, and successfully modeled animals were randomly grouped. Schemes were set according to different trial doses, and drug treatment was given 2 h after cerebral ischemia-reperfusion. Death conditions were recorded every day after the surgery, and indicators were evaluated after 48 h. In the whole trial process, general conditions were observed, mainly including: death, coma, breathing, urine and feces traits, hair colors, mental status, vomiting and vomitus, bleeding, convulsion, spasm, etc. Abnormal animals due to unexpected factors were excluded. Finally, unblinding was conducted by a person who made blind trials.
# Evaluated indicator: (1) Evaluation of symptoms of neurological deficits: The symptoms of neurological deficits were evaluated by using a modified Bederson 5-point scale. A single-blind method was used for evaluating the symptoms of neurological deficits in rats with brain trauma. That is, a trial designer marked animals in accordance with groups, and an experimenter who scored the symptoms of neurological deficits had no knowledge of how the animals were grouped. After scoring was completed, the scorer submitted scoring results for various marks to the designer, and the designer performed unblinding to obtain scores of animals in each trial group. (2) Measurement of cerebral infarction area: A method reported in the literature was used. An animal was anesthetized with 10% chloral hydrate and decapitated to collect brain. The olfactory bulb, cerebellum and lower brain stem were removed. Blood stains on the surface of the brain were rinsed with normal saline, the residual water stains on the surface were absorbed, and the brain was placed at −80° C. for 7 min. After the brain was taken out, a coronal section was immediately made at downwards and vertical to the sight intersection plane, and brain slices were made every 2 mm backwards. Brain slices were placed in a TTC (20 g/L) dye solution prepared with 0.9% normal saline, and incubated at 37° C. for 90 min. Normal brain tissues were stained deep red, and ischemic brain tissues were pale-white. After rinsed with normal saline, the brain sections were quickly arranged in order from front to back, the residual water stains on the surface were absorbed to dryness, and pictures were taken. Image analysis software was used for statistics on the pictures. […]
# [7] = brain, read-out: Mean Intracerebral Concentration
# [8] = plasma, read-out: Mean Plasma Concentration
Structure (SMILES),Cerebral Infarction Area [1],inhibition in vivo at 4 mg/kg [1] [%],"Blood viscosity, High Shear [2]","Blood viscosity, Low Shear [2]",TNF-α (TNF-α) [ng/L],IL-1β (IL-1β) [ng/L],inhibition at 4 mg/kg [3] [%],Maximum Aggregation Rate [3] [%],inhibition at 4 mg/kg [4] [%],Maximum Aggregation Rate [4] [%],Kp at 10 min [5],Kp at 60 min [5],Kp at 180 min [5],"concentration at 10 min [5, 7] [ng/g]","concentration at 60 min [5, 7] [ng/g]","concentration at 180 min [5, 7] [ng/g]","concentration at 10 min [5, 8] [ng/mL]","concentration at 60 min [5, 8] [ng/mL]","concentration at 180 min [5, 8] [ng/mL]",Score of Symptoms of Neurological Deficits [6],further results
COc1cc(CCC(=O)O[C@H]2C[C@H]3CC[C@]2(C)C3(C)C)cc(O)c1O [Compound B],18.7 ± 7.16,49,2.73 ± 0.122,13.9 ± 0.134,645 ± 42.3,63.4 ± 5.6,46.8,17.5 ± 2.84,55,32.1 ± 9.7,1.6,4.5,1.8,2490 ± 437,1270 ± 234,247 ± 87.5,1530 ± 581,285 ± 105,136 ± 60.4,–,–
CC1(C)[C@@H]2CC[C@@]1(C)[C@@H](OC(=O)CCc1ccc(O)c(OC(F)(F)F)c1)C2 [Compound E],19.8 ± 3.61,46,2.73 ± 0.405,13.5 ± 1.183,573 ± 43.0,64.3 ± 8.1,46.2,17.7 ± 5.46,39.1,43.5 ± 8.4,3.4,3.5,3.7,3020 ± 527,959 ± 337,314 ± 56.6,887 ± 222,274 ± 102,84.6 ± 42.3,–,–
"CC1(C)[C@@H]2CC[C@@]1(C)[C@@H](OC(=O)[C@H](O)Cc1ccc(O)c(O)c1)C2 [D-tanshinol borneol ester, reference compound]",25.6 ± 4.65,30.2,2.76 ± 0.134,14.1 ± 0.658,687 ± 35.4,67.1 ± 8.8,43.8,18.5 ± 4.36,33.8,47.3 ± 4.53,0.47,2.6,3.4,1040 ± 168,644 ± 99.7,177 ± 35.2,2210 ± 546,244 ± 62.4,52.8 ± 34.1,1.98 ± 0.17,Infarction area [6]: 22.76 ± 2.42 %
"COc1cc(/C=C/C(=O)O[C@H]2C[C@H]3CC[C@]2(C)C3(C)C)ccc1O [D-bornyl ferulate, reference compound]",21.7 ± 4.35,40.9,2.84 ± 0.323,13.8 ± 0.574,658 ± 23.6,64.8 ± 5.8,46.5,17.6 ± 4.59,36.4,45.4 ± 2.64,0.52,5,5.8,1490 ± 219,701 ± 136,276 ± 81.3,2890 ± 671,138 ± 55,47.1 ± 21.6,1.94 ± 0.19,Infarction area [6]: 21.68 ± 2.80 %
COc1cc(CCC(=O)O[C@H]2C[C@H]3CC[C@]2(C)C3(C)C)c(Br)cc1O [Compound D],19.4 ± 4.61,47.1,2.63 ± 0.312,13.3 ± 0.354,562 ± 34.2,53.4 ± 8.9,55.3,14.7 ± 7.42,34.6,46.7 ± 9.8,1.6,4.6,4,2260 ± 323,1430 ± 285,485 ± 125,1400 ± 236,312 ± 115,120 ± 22.7,–,–
"CC(=O)Oc1ccccc1C(=O)O [Aspirin, aspirin, reference compound]",22.7 ± 4.05,38,2.64 ± 0.199,12.2 ± 0.742,647 ± 45.2,62.9 ± 11.5,54.1,14.8 ± 3.99,40.8,41.3 ± 1.53,–,–,–,–,–,–,–,–,–,–,–
